The term Ki denotes the equilibrium dissociation constant of an inhibitor or competing ligand from its target. A high value points to a looser hold on the target.

Where only a bound is given, the exact number is not on record here.

Test [1] concerns the target D(2) dopamine receptor (Homo sapiens, UniProt P14416). Briefly: Displacement of [3H]raclopride from human dopamine D2L receptor expressed in HEK293 cells incubated for 1 hr by microbeta plate reader method. The class given is cell-based. A general note: In a radioligand displacement assay an active substance lowers the binding of a labelled ligand.
Test [2] deals with T1, 5-hydroxytryptamine receptor 1A (Homo sapiens, UniProt P08908).
T1 sequence (P08908 whole entry): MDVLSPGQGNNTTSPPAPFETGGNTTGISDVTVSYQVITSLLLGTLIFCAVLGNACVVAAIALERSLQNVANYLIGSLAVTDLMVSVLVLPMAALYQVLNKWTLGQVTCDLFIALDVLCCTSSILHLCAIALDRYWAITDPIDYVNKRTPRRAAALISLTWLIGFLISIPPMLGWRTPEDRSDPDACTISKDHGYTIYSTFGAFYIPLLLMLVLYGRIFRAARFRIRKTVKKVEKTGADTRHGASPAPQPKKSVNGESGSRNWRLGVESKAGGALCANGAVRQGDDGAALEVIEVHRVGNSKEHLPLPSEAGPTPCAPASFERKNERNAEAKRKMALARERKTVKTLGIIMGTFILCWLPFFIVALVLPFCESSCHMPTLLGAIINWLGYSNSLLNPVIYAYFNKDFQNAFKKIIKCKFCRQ
Briefly: Displacement of [3H]-8-OH-DPAT from human 5HT1AR expressed in HEK293 cell membranes after 1 hr by microbeta plate reader method.

Test [3] has as its target 5-hydroxytryptamine receptor 2A (Homo sapiens, UniProt P28223). Briefly: Displacement of [3H]ketanserin from human 5HT2AR expressed in CHO-K1 cell membranes after 1 hr by microbeta plate reader method.
For test [4], the target named is 5-hydroxytryptamine receptor 6 (Homo sapiens, UniProt P50406). Nature of the test: Displacement of [3H]LSD from human 5HT6 receptor expressed in HEK293 cell membranes after 1 hr by microbeta plate reader method.
Chain of 5-hydroxytryptamine receptor 6 (P50406 whole entry): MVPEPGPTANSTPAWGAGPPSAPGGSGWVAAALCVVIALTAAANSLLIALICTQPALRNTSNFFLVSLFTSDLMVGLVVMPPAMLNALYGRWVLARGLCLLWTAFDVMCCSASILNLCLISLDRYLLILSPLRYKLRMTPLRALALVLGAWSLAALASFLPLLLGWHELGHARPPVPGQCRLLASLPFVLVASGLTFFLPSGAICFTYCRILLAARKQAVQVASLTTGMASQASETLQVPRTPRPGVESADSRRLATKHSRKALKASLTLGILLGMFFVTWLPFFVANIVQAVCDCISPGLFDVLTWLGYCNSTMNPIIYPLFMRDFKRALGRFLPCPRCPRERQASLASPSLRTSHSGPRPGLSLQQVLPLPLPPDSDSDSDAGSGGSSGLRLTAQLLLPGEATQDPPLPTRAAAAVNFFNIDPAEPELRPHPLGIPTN
The target in test [5] is T2, 5-hydroxytryptamine receptor 7 (Homo sapiens, UniProt P34969). Briefly: Displacement of [3H]5-CT from human 5HT7B receptor expressed in HEK293 cell membranes after 1 hr by microbeta plate reader method.
T2 sequence (P34969 whole entry): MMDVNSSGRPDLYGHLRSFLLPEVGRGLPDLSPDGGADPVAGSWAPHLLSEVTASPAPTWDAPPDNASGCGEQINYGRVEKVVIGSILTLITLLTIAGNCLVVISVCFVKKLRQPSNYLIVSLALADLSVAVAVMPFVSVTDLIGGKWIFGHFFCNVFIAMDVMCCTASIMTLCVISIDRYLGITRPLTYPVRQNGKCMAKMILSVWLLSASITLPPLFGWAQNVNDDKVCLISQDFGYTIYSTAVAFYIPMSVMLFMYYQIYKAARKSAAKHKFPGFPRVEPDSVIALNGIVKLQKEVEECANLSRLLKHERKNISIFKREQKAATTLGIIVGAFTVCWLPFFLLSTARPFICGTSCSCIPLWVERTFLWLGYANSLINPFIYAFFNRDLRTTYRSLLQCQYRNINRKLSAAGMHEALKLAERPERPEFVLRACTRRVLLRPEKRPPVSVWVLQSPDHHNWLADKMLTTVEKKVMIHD
Test [6] concerns the target D(2) dopamine receptor (Rattus norvegicus, UniProt P61169). Nature of the test: Displacement of [3H]spiperone from dopamine D2 receptor in Sprague-Dawley rat striatal membranes incubated for 40 mins. Also on record: species or system Striatum, Membrane.
The target of test [7] is 5-hydroxytryptamine receptor 2A (Rattus norvegicus, UniProt P14842). Briefly: Displacement of [3H]ketanserin from 5HT2A receptor in rat cortical membranes incubated for 15 mins by liquid scintillation spectrometry. In kind it is cell membranes.
Chain of 5-hydroxytryptamine receptor 2A (Rattus norvegicus, UniProt P14842) (P14842 whole entry): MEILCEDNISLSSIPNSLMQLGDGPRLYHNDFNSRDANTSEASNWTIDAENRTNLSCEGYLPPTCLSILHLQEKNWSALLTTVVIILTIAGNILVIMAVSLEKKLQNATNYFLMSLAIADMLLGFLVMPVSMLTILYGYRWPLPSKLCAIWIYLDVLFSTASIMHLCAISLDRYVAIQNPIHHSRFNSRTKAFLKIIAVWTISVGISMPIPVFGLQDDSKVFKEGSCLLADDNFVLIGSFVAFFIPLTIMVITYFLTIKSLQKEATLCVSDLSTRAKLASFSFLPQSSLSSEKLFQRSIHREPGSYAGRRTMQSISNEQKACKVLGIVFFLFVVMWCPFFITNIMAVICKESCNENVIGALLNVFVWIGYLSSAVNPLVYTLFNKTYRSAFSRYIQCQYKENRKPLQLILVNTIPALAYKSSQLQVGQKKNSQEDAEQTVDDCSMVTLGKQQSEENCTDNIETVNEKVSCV
For test [8], the target named is T2, 5-hydroxytryptamine receptor 7. Nature of the test: Binding affinity to 5HT7 (unknown origin).
Test [9] has the same target. Briefly: Displacement of [3H]5-CT from human 5HT7 receptor expressed in COS7 cells incubated for 30 mins by liquid scintillation counting method. The class given is cell-based.

Chain of D(2) dopamine receptor (Homo sapiens, UniProt P14416) (P14416 whole entry): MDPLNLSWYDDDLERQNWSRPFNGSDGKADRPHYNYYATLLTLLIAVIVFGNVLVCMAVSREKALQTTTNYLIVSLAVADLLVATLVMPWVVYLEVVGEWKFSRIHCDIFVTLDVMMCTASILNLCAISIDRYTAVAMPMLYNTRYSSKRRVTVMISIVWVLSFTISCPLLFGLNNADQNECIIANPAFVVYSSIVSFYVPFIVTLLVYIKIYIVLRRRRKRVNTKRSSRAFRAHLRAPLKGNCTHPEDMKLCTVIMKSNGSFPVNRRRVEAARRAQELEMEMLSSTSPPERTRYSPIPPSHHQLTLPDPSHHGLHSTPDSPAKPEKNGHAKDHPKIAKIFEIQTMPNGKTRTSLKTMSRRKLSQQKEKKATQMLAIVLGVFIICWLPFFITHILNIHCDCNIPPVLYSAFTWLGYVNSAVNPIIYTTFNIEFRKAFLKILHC
Chain of 5-hydroxytryptamine receptor 2A (Homo sapiens, UniProt P28223) (P28223 whole entry): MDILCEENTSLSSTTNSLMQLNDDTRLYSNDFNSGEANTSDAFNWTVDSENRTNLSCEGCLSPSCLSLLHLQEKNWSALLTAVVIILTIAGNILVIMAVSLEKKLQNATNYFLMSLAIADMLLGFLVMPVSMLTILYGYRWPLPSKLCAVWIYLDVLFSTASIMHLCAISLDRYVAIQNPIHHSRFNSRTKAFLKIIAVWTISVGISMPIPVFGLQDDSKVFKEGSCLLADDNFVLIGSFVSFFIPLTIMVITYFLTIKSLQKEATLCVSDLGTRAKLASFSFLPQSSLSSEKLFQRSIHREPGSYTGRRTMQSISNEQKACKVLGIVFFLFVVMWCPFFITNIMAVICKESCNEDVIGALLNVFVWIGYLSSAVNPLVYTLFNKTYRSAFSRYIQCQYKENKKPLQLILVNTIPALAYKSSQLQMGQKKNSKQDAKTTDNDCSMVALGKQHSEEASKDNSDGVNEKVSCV
Chain of D(2) dopamine receptor (Rattus norvegicus, UniProt P61169) (P61169 whole entry): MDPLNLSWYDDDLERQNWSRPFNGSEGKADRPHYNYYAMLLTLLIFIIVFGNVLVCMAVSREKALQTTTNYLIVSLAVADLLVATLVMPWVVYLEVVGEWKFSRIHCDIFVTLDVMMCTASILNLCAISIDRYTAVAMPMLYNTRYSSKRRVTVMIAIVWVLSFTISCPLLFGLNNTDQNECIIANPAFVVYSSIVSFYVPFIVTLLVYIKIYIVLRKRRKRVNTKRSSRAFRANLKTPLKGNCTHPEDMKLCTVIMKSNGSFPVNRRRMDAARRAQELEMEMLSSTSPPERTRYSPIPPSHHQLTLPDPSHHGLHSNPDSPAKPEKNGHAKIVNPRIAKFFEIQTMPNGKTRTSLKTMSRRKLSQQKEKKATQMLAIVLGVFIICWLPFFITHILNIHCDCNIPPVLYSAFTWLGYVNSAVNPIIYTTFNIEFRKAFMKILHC

As to `O=C1c2cccc3cccc(c23)N1CCCCCCN1CCN(c2ccc(Cl)cc2)CC1`, the Ki was determined as 197 nM on D(2) dopamine receptor [1]; 181 nM in test [2]; 423 nM in [3]; 689 nM in test [4]; 124 nM in test [5].
Regarding `O=S1(=O)c2cccc3cccc(c23)N1CCCN1CCN(c2ccc(Br)cc2)CC1`, the Ki on D(2) dopamine receptor [6] is greater than 1000 nM; in test [7], 7 nM.
For the molecule `O=C1c2cccc3cccc(c23)N1CCCCCCN1CCN(c2cccc(Cl)c2)CC1`, the Ki was found to be 75 nM on D(2) dopamine receptor [1]; 43 nM in [2]; 429 nM in test [3]; 480 nM in test [4]; 53 nM in test [5].
For `O=S1(=O)c2cccc3cccc(c23)N1CCCCCCN1CCN(c2ccc(C(F)(F)F)cc2)CC1`, the Ki on D(2) dopamine receptor [1] is 927 nM; in [2], 989 nM; in test [3], 1530 nM; in [4], 937 nM; in [5], 6000 nM.
As for `O=S1(=O)c2cccc3cccc(c23)N1CCCCCCN1CCN(c2cccc(Cl)c2Cl)CC1`, the Ki was determined as 220 nM at D(2) dopamine receptor [1]; 149 nM in test [2]; 177 nM in [3]; 237 nM in [4]; 140 nM in test [5].
The molecule `COc1ccccc1N1CCN(CCCCN2c3cccc4cccc(c34)S2(=O)=O)CC1` yielded a Ki in test [8] of 200 nM.
With `O=S1(=O)c2cccc3cccc(c23)N1CCCCCCN1CCN(c2ccccc2F)CC1`, the inhibitory constant (Ki) at D(2) dopamine receptor [1] was 90 nM; in test [2] it was 81 nM; in test [3] it was 376 nM; in test [4] it was 710 nM; in test [5], 203 nM.
On the same counts, the results for `O=C1c2cccc3cccc(c23)N1CCCCCCN1CCN(c2ccc(Cl)c(Cl)c2)CC1` are 246 nM, 161 nM, 493 nM, 1860 nM and 166 nM.
Consider `O=C1c2cccc3cccc(c23)N1CCCCCCN1CCN(c2cccc(C(F)(F)F)c2)CC1`, for which the Ki came to 496 nM on D(2) dopamine receptor [1]; 54 nM in [2]; 773 nM in test [3]; 2210 nM in test [4]; 291 nM in [5].
As to `O=S1(=O)c2cccc3cccc(c23)N1CCCN1CCN(c2ccc(Cl)cc2)CC1`, the Ki on D(2) dopamine receptor [6] was greater than 1000 nM; in test [7], 5 nM.
As to `COc1ccccc1N1CCN(CCCCCN2c3cccc4cccc(c34)S2(=O)=O)CC1`, in [8], the Ki is 251 nM.
On to `O=S1(=O)c2cccc3cccc(c23)N1CCCCCCN1CCN(c2cccc(C(F)(F)F)c2)CC1`, for which the inhibitory constant (Ki) came to 304 nM on D(2) dopamine receptor [1]; 132 nM in [2]; 596 nM in test [3]; 374 nM in test [4]; 167 nM in test [5].
As for `O=S1(=O)c2cccc3cccc(c23)N1CCCN1CCN(c2cccc(F)c2)CC1`, the Ki at D(2) dopamine receptor [6] was greater than 1000 nM; in test [7], 18 nM.
In the case of `O=C1c2cccc3cccc(c23)N1CCCCCCN1CCN(c2ccc(C(F)(F)F)cc2)CC1`, the Ki turned out to be 945 nM on D(2) dopamine receptor [1]; 536 nM in [2]; 4350 nM in test [3]; 2040 nM in test [4]; 49000 nM in test [5].
With `O=C1c2cccc3cccc(c23)N1CCCCCCN1CCN(c2ccccc2Cl)CC1`, the Ki came out at 58 nM at D(2) dopamine receptor [1]; 66 nM in test [2]; 540 nM in test [3]; 1680 nM in test [4]; 336 nM in [5].
On the same counts, the results for `O=S1(=O)c2cccc3cccc(c23)N1CCCCCCN1CCN(c2ccc(Cl)c(Cl)c2)CC1` are 254 nM, 79 nM, 251 nM, 225 nM and 404 nM.
On the same counts, the results for `O=S1(=O)c2cccc3cccc(c23)N1CCCCCCN1CCN(c2cccc(Cl)c2)CC1` are 121 nM, 46 nM, 322 nM, 624 nM and 432 nM.
In the case of `O=C1c2cccc3cccc(c23)N1CCCCCCN1CCN(c2ccccc2F)CC1`, the Ki at D(2) dopamine receptor [1] is 320 nM; in test [2], 64 nM; in test [3], 524 nM; in test [4], 1730 nM; in test [5], 420 nM.
In test [9], `O=C1Nc2cccc3c2C1(CCCCN1CCN(c2ccccc2Cl)CC1)CCC3` (configuration not stated) came in with a Ki of 12 nM. This lies in the double-digit nanomolar range.
On the same count and under the same terms, to `COc1ccc(N2CCN(CCCCC34CCCc5cccc(c53)NC4=O)CC2)cc1` (configuration not stated) belongs 20 nM.
Regarding `O=S1(=O)c2cccc3cccc(c23)N1CCCCCCN1CCN(c2ccc(Cl)cc2)CC1`, the Ki on D(2) dopamine receptor [1] was 336 nM; in test [2], 197 nM; in test [3], 147 nM; in test [4], 433 nM; in test [5] it was 280 nM.
For `O=S1(=O)c2cccc3cccc(c23)N1CCCCN1CCN(c2ccccc2)CC1`, the affinity in test [8] corresponds to a Ki of 1000 nM.
With `O=S1(=O)c2cccc3cccc(c23)N1CCCCCCN1CCN(c2ccccc2Cl)CC1`, the Ki on D(2) dopamine receptor [1] came out at 142 nM; in test [2] it was 106 nM; in test [3] it was 548 nM; in test [4] it was 507 nM; in [5], 286 nM.
On the same counts, the results for `O=C1c2cccc3cccc(c23)N1CCCCCCN1CCN(c2ccc(Br)cc2)CC1` are 204 nM, 688 nM, 1490 nM, 3190 nM and 1830 nM.
Consider `O=S1(=O)c2cccc3cccc(c23)N1CCCCCCN1CCN(c2ccccc2)CC1`, for which the inhibition constant (Ki) in test [8] was greater than 1000 nM.
On to `O=C1c2cccc3cccc(c23)N1CCCCCCN1CCN(c2cccc(Cl)c2Cl)CC1`, for which the Ki was 94 nM on D(2) dopamine receptor [1]; 122 nM in test [2]; 406 nM in [3]; 918 nM in test [4]; 5100 nM in test [5].
Take `O=S1(=O)c2cccc3cccc(c23)N1CCCN1CCN(c2ccc(F)cc2)CC1` [FANANSERIN]: the Ki on D(2) dopamine receptor [6] is greater than 1000 nM.
Turning to `O=C1c2cccc3cccc(c23)N1CCCCCCN1CCN(c2ccccc2C(F)(F)F)CC1`, the Ki stood at 161 nM at D(2) dopamine receptor [1]; 599 nM in [2]; 1770 nM in [3]; 1130 nM in [4]; 17800 nM in test [5].
Turning to `O=S1(=O)c2cccc3cccc(c23)N1CCCCCN1CCN(c2ccccc2)CC1`, in test [8], the Ki is 200 nM. In other words, the sub-micromolar range.
Consider `O=S1(=O)c2cccc3cccc(c23)N1CCCN1CCN(c2ccccc2F)CC1`, for which the Ki at D(2) dopamine receptor [6] is greater than 1000 nM; in [7], 3 nM.
As to `COc1ccccc1N1CCN(CCCCCCN2c3cccc4cccc(c34)S2(=O)=O)CC1`, in test [8], affinity was put at a Ki of 200 nM.
